In series [1] the test system is RYR paralogs found in zebrafish skeletal muscle. The experiment in a line: [3H]ryanodine ligand binding assay, adult zebrafish tail muscle microsomes. The note with it: for Max. response SEM (%): maximum [3H]Ry binding response compared to DMSO control, mean ± SEM; for EC50: relative EC50, concentration causing half-maximum response, PCB 0.1–50 μM; for RYR activity (in words): zebrafish muscle; for EC2X: concentration causing two-fold induction in ligand binding vs DMSO control. How it is done: Sensitization of the zebrafish RYR by ortho-PCBs was measured using [^3H]ryanodine ([^3H]Ry) ligand binding assays as previously described ([Fritsch and Pessah, 2013]). Briefly, crude microsomal protein preparations were created from the tail (post dorsal fin) muscle (primarily white skeletal muscle) of six adult zebrafish (∼1 year old) that was homogenized in a buffer containing 320 mM sucrose, 5 mM HEPES, 1 mM PMSF, 10 mM NaF, 2 mM β-Glycerol, 5 mM Na4P2O7, 0.5 mM Na3VO4 and 2 μg/L leupeptin (pH 7.2). The homogenate was centrifuged at 5,000 × g (4°C) for 15 min. The pellet was re-homogenized in 5 ml homogenization buffer and centrifuged at 5,000 × g. Supernatants were combined for ultracentrifugation at 100,000 g (4°C for 1 h). The resultant pellet was re-suspended in a buffer of 320 mM sucrose and 5 mM HEPES (Sigma-Aldrich, St. Louis, MO, United States) at pH 7.2. Protein concentrations were determined in triplicate using a BCA Assay (Fisher Scientific, Waltham, MA, United States). [^3H]Ry ligand binding assays were conducted with 40 μg/ml of the crude protein homogenate in the presence of DMSO (0.5%) or 0.1–50 μM of individual PCB congeners in 0.5% DMSO. Tests were run using 5 nM [^3H]Ry (Perkin Elmer Waltham, MA, United States), 250 mM KCl, 20 mM HEPES, 15 mM NaCl, and 50 μM CaCl2 (pH 7.1) and incubated for 16 h at 25°C. Non-specific binding was determined with the addition of 10 µM ryanodine (Tocris Bioscience, Bristol, United Kingdom) and 200 μM EGTA (Sigma-Aldrich, St. Louis, MO, United States). Assays were terminated by rapid filtration through Whatman GF/B filter paper (Brandel, Gaithersburg, MD, United States) and washed with ice-cold buffer containing 140 mM KCl, 10 mM HEPES, and 0.1 mM CaCl2, pH 7.4. Bound radioligand was measured by liquid scintillation counting (Beckman Coulter, Indianapolis, IN, United States). PCB-induced [^3H]Ry binding was assessed in two different protein preparations, and each assay was run in triplicate. Individual PCB concentration-response curves were determined using non-linear regression (GraphPad Prism 6.0, GraphPad Software Inc., San Diego, CA, United States).

The test system of another series is larval zebrafish. The experiment in a line: Larval photomotor behavior test (light/dark locomotor test). It is filed as in vivo. The note with it: for Behavior score (total change from control): sum of absolute [1 − (AUC value/DMSO)] over all concentrations, epochs and 3, 4, 5 dpf; for distance traveled relative to vehicle control: on average across larval ages. The method, then: At 4 hpf, embryos were treated with 50 µl of 41 mg/ml protease from Streptomyces griseus (P5147, Sigma-Aldrich, St. Louis, MO, United States) in 25 ml of FW for a maximum of 6 min to remove the chorion ([Truong et al., 2011]). At 5 hpf, embryos were placed in individual wells of 96-well plates filled with 100 µl of EM. At 6 hpf, embryos were exposed to a 2× concentration of the selected PCB congeners or controls that were diluted in 100 μl EM to produce a 1× concentration in a total of 200 µl solution. […] After exposure, plates were covered with Parafilm M (Bemis NA, Neenah, WI, United States) to reduce evaporation and placed in an incubator at 28.5°C with 14 h light (∼300 lux)/10 h dark cycles. Final DMSO concentrations were 0.2% (vol/vol) for all exposures. Fish were statically exposed until 5 dpf.
Larval locomotor tests were performed at 3, 4, and 5 dpf. Vehicle and PCB-exposed larvae in 96-well plates were placed in a DanioVision behavior system (Noldus Information Technology, Leesburg, VA, United States) and subjected to a 35 min light/dark locomotor test. System and plate temperature were maintained at 28.5 ± 0.5°C using a temperature control unit from Noldus. The testing paradigm consisted of a 10 min light period (∼1,900 lux) to allow for acclimation (5 min) and to record baseline swimming (5 min). This was followed by a 5 min dark period (∼0 lux) to stimulate increased swimming behavior and a 5 min light period (∼1,900 lux) to stimulate freezing behavior. The last 15 min consisted of a dark period (∼0 lux) to observe increased swimming behavior and acclimation to the dark conditions.
The distance traveled binned per minute by each larva during the 35-min observation test period was recorded via continuous tracing using a DanioVision system camera with an infrared filter to allow recording in both light and dark conditions. Movement was tracked using EthoVisionXT software (Noldus Information Technology) and exported to Excel and Prism 6.0 (GraphPad Software) for analysis and visualization. Dead and/or malformed larvae (as noted by observation under dissecting scope) were excluded from the behavior analysis.
The trapezoidal rule was used to compute the area under the curve (AUC) for each fish per day per lighting condition. The first 5 min of the 35-min observation period was removed to account for initial acclimation. Therefore, data were analyzed for the following time epochs: Light 1 (L1) = 6–10 min, Dark 1 (D1) = 11–15 min, Light 2 (L2) = 16–20 min, and Dark 2 (D2) = 21–35 min. Mixed effects regression models, including zebrafish-specific random effects, were used to assess differences between groups. DMSO groups from each spawn date (≥3 independent spawns) and plate were combined in the analysis. Separate models were fit for each congener. New variables were defined to capture differences in the AUC between Light 1 and Dark 1, Dark 1 and Light 2, and Light 2 and Dark 2, to measure change in distance traveled when transitioning from light to dark or dark to light. Contrasts were specified to compare these transitions and the AUC during each of the lighting conditions between the exposed groups and the DMSO control group. […] Due to some zeroes in the AUC, all values were shifted by 0.1 prior to taking the natural logarithm. Concentration (0.1, 0.3, 1, 3, 10 µM and DMSO), day (3, 4, 5 dpf), and the transition variables were all of interest in the models, including their interactions. Akaike information criterion was used for model selection and Wald tests for comparing groups. All analyses were conducted using SAS version 9.4.
The neurotoxic potential of the congeners tested in this study were ranked based on the three endpoints measured in this study: RYR binding, behavior, and body burden. Congeners were ranked relative to each other for each individual endpoint from 1 (highest) to 6 (lowest), and then the three scores for each congener averaged to obtain an overall relative ranking for each congener. […]

“Also recorded” adds a separate entry of the source.

This note sets out measurements from paper PMC9582434, “Ryanodine receptor-active non-dioxin-like polychlorinated biphenyls cause neurobehavioral deficits in larval zebrafish” (Frontiers in Toxicology, 2022).

As a reminder, the EC50 is the concentration that produces a half-maximal response. The low end stands for a more potent agent, the high end for a less potent agent.

Take `Clc1ccc(-c2ccc(Cl)cc2Cl)cc1` [PCB 28]: in series [1], the “concentration failing to cause a 2-fold (EC2X) increase in channel activity” value was “above 10 µM”. Also, in series [1], the “Max. response SEM (%)” value is reported as 170.60 ± 13.28%. This compound also showed an EC50 in series [1] of 0.67 µM. Moreover, the “RYR activity (in words)” value in series [1] is given as “limited”. For the same compound, the “increase of L1-D1 transition relative to vehicle controls” value came to 0.9 mm in the series with larval zebrafish (0.1 µM, 4 dpf); 1.3 mm in the series with larval zebrafish (0.3 µM, 4 dpf); 0.87 mm with larval zebrafish (1 µM, 4 dpf); 0.9 mm with larval zebrafish (3 µM, 4 dpf); 0.8 mm in the series on larval zebrafish (10 µM, 4 dpf). The “distance moved relative to vehicle control” value with larval zebrafish (0.1 µM, 4 dpf, D1) is given as “significantly more”; in the series on larval zebrafish (0.3 µM, 4 dpf, D1) it was “significantly more”; with larval zebrafish (0.3 µM, 4 dpf, L1), “traveling less”; in the series on larval zebrafish (1 µM, 4 dpf, D1), “significantly more”; in the series with larval zebrafish (3 µM, 3 dpf, D2), “significantly less”; in the series with larval zebrafish (3 µM, 4 dpf, D1) it was “significantly more”. The “distance moved relative to vehicle control” value is listed as “significantly less” in the series with larval zebrafish (10 µM, 3 dpf, D2) and “moved less” with larval zebrafish (10 µM, 5 dpf, L2). The “Behavior score (total change from control)” value in the series on larval zebrafish was found to be 10.83.

For `Clc1ccc(-c2ccc(Cl)c(Cl)c2)c(Cl)c1` [PCB 66], in series [1], the “concentration failing to cause a 2-fold (EC2X) increase in channel activity” value is on record as “above 10 µM”, the EC50 is more than 50 µM and the “RYR activity (in words)” value is “negligible; also recorded: limited”. Also, the “distance traveled relative to vehicle control” value with larval zebrafish (0.11 µM, L1) is on record as “significantly decreased”. For the same compound, the “distance traveled relative to vehicle control” value with larval zebrafish (1 µM, L1) is given as “significantly decreased”. The “Behavior score (total change from control)” value in the series with larval zebrafish is recorded as 14.39.

The compound `Clc1cccc(-c2c(Cl)ccc(Cl)c2Cl)c1Cl` [PCB 84] came in with an EC2X in series [1] of 6.97. Moreover, the “maximal effect compared to the DMSO control” value in series [1] (concentrations above 3 µM) is given as 400%. For the same compound, the “change in RYR activity at low concentrations” value in series [1] (concentrations below 3 µM, biphasic effect) is “significant reduction”. Also, in series [1], the “Max. response SEM (%)” value stood at 437.50 ± 35.72%. Moreover, in series [1], the EC50 amounted to 8.97 µM. For the same compound, the “distance moved relative to vehicle control” value in the series with larval zebrafish (0.1 µM, 3 dpf, D1) is reported as “moved less”; in the series on larval zebrafish (0.1 µM, 3 dpf, D2), “moved less”; in the series with larval zebrafish (0.1 µM, 3 dpf, L2) it was “moved less”; in the series with larval zebrafish (0.3 µM, 4 dpf, L1), “significantly less movement”; in the series on larval zebrafish (0.3 µM, 5 dpf, L1), “moved more”; in the series on larval zebrafish (1 µM, 4 dpf, L1) it was “significantly less movement”. The “distance moved relative to vehicle control” value in the series on larval zebrafish (3 µM, 3 dpf, L2) is “moved more”; in the series with larval zebrafish (3 µM, 5 dpf, L1), “moved more”; with larval zebrafish (10 µM, 3 dpf, D1), “moved more”; with larval zebrafish (10 µM, 3 dpf, D2), “moved more”; in the series with larval zebrafish (10 µM, 3 dpf, L1), “Increased”; with larval zebrafish (10 µM, 3 dpf, L2), “Increased”. The “distance moved relative to vehicle control” value in the series on larval zebrafish (10 µM, 5 dpf, L1) is given as “moved more”. Besides, the “L1-D1 transition relative to vehicle control” value is given as “moved more” with larval zebrafish (0.3 µM, 4 dpf); “moved more” in the series with larval zebrafish (1 µM, 4 dpf); “increased less” in the series with larval zebrafish (3 µM, 5 dpf); “moved less” in the series with larval zebrafish (10 µM, 4 dpf); “increased less” with larval zebrafish (10 µM, 5 dpf). For the same compound, the “Behavior score (total change from control)” value with larval zebrafish was 28.93.

`Clc1ccc(Cl)c(-c2c(Cl)ccc(Cl)c2Cl)c1` [PCB 95, 2,2',3,5',6-pentachlorobiphenyl]: the EC2X in series [1] worked out at 1.5. Moreover, the “Max. response SEM (%)” value in series [1] is 734.70 ± 49.87%. Besides, the “increase in [3H]Ry-binding” value in series [1] (measure of channel activation) is given as approximately 800%. This compound also returned an EC50 in series [1] of 3.79 µM. The “RYR activity (in words)” value in series [1] is reported as “high”. The “L1-D1 transition relative to vehicle control” value in the series with larval zebrafish (0.1 µM, 4 dpf) is recorded as “moved more”; in the series with larval zebrafish (3 µM, 5 dpf), “significantly less”; in the series on larval zebrafish (10 µM, 4 dpf), “decreased”; in the series on larval zebrafish (10 µM, 5 dpf), “decreased”. Also, the “distance moved relative to vehicle control” value in the series on larval zebrafish (3 µM, 3 dpf, D2) is recorded as “moved more”; in the series on larval zebrafish (3 µM, 3 dpf, L2), “moved more”; in the series with larval zebrafish (3 µM, 5 dpf, L1), “more”; with larval zebrafish (10 µM, 3 dpf, D1), “significantly more”; in the series on larval zebrafish (10 µM, 3 dpf, D2) it was “significantly more”; with larval zebrafish (10 µM, 3 dpf, L1), “significantly more”. The “distance moved relative to vehicle control” value was “significantly more” in the series with larval zebrafish (10 µM, 3 dpf, L2); “significantly less” in the series on larval zebrafish (10 µM, 4 dpf, D1); “significantly more” in the series with larval zebrafish (10 µM, 4 dpf, L1); “significantly more” in the series with larval zebrafish (10 µM, 4 dpf, L2); “significantly less” with larval zebrafish (10 µM, 5 dpf, D1); “significantly less” with larval zebrafish (10 µM, 5 dpf, D2). Further, in the series on larval zebrafish (10 µM, 5 dpf, L1), the “distance moved relative to vehicle control” value is on record as “more”. For the same compound, the “Behavior score (total change from control)” value with larval zebrafish was 81.46.
